Key:
[1] = system: Hepatitis C virus subtype 4a; assay: Inhibition of HCV genotype 4a NS5A after 3 day incubation by RT-PCR-cell-based HCV replicon assay
[2] = system: Hepatitis C virus subtype 1a; assay: Inhibition of HCV genotype 1a NS5A after 3 day incubation by RT-PCR-cell-based HCV replicon assay
[3] = system: Nonstructural protein 5A (Hepatitis C virus), Q5L478 [UNDEFINED MUTATION]; assay: Inhibition of HCV genotype 1a NS5A L31V mutant after 3 day incubation by RT-PCR-cell-based HCV replicon assay; conditions: Hepatitis C virus subtype 1a
[4] = system: T1, Nonstructural protein 5A (Hepatitis C virus), Q5L478 [Y93H]; assay: Inhibition of HCV genotype 1a NS5A Y93H mutant after 3 day incubation by RT-PCR-cell-based HCV replicon assay; conditions: Hepatitis C virus subtype 1a
T1 sequence (whole entry): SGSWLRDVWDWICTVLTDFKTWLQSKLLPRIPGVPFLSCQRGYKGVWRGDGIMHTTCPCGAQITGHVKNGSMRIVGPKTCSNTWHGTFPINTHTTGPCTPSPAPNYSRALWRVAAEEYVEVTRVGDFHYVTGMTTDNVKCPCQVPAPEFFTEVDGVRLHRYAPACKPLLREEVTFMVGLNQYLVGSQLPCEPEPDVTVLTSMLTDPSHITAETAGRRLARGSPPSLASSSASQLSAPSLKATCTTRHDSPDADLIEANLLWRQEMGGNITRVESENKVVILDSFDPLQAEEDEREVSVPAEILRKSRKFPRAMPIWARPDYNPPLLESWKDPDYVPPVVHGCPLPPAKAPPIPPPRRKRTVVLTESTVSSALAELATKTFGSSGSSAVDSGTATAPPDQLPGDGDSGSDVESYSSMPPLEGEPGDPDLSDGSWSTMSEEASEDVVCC

[5] = system: Hepatitis C virus subtype 2b; assay: Inhibition of HCV genotype 2b NS5A harboring methionine at position 31 after 3 day incubation by RT-PCR-cell-based HCV replicon assay
[6] = system: Hepatitis C virus subtype 3a; assay: Inhibition of HCV genotype 3a NS5A after 3 day incubation by RT-PCR-cell-based HCV replicon assay
[7] = Clearance in rat at 2.5 mg/kg, iv or 5 mg/kg, po; type: ADME, organism-based; conditions: in vivo
[8] = Half life in rat at 2.5 mg/kg, iv or 5 mg/kg, po; type: ADME, organism-based; conditions: in vivo
[9] = AUC in rat at 5 mg/kg, po; type: ADME, organism-based; conditions: in vivo
[10] = Oral bioavailability in rat at 5 mg/kg; type: ADME, organism-based; conditions: in vivo
[11] = Cmax in rat at 2.5 mg/kg, iv or 5 mg/kg, po; type: ADME, organism-based; conditions: in vivo

Row | Compound | EC90 [1] [nM] | EC90 [2] [nM] | EC90 [3] [nM] | EC90 [4] [nM] | EC90 [5] [nM] | EC90 [6] [nM] | clearance [7] [mL/min/kg] | half-life [8] [h] | AUC [9] [µM·h] | bioavailability [10] [%] | Cmax [11] [nM]
1 | COC(=O)N[C@H](C(=O)N1CCC[C@H]1c1ncc(-c2ccc3c(c2)Oc2ccc(-c4cnc([C@@H]5CCCN5C(=O)[C@@H](NC(=O)OC)C(C)C)[nH]4)c4c2N3CCO4)[nH]1)C(C)C | 2.48 | 0.005 | 100 | 361 | 100 | 4.69 |  |  |  |  | 
2 | COC(=O)N[C@H](C(=O)N1CCC[C@H]1c1ncc(-c2ccc3c(c2)OC(c2cccc(OC)c2)C2=C3COc3cc(-c4cnc([C@@H]5CCCN5C(=O)[C@@H](NC(=O)OC)C(C)C)[nH]4)ccc32)[nH]1)C(C)C (stereo not given in full) |  | 0.039 | 0.3 | 12 | 4.7 | 1.93 |  |  |  |  | 
3 | COC(=O)N[C@H](C(=O)N1CCC[C@H]1c1ncc(-c2cc3c4c(c2)CCc2cc(-c5cnc([C@@H]6CC(F)(F)CN6C(=O)[C@@H](NC(=O)OC)C(C)C)[nH]5)cc(c2-4)CC3)[nH]1)C(C)C | 0.6 | 0.07 | 20.7 | 30.2 | > 100 | > 10 |  |  |  |  | 
4 | COC(=O)N[C@H](C(=O)N1CCC[C@H]1c1ncc(-c2ccc3c(c2)Oc2ccc(-c4cnc([C@@H]5CCCN5C(=O)[C@@H](NC(=O)OC)C(C)C)[nH]4)c4occ-3c24)[nH]1)C(C)C | 0.31 | 0.03 | 100 | 132 | 100 | 0.32 | 8.5 | 1.9 | 4.28 | 34 | 830
5 | COC(=O)N[C@H](C(=O)N1CCC[C@H]1c1nc(-c2ccc3c(c2)O[C@@H](c2ccccc2)n2c-3cc3cc(-c4c[nH]c([C@@H]5CCCN5C(=O)[C@@H](NC(=O)OC)C(C)C)n4)ccc32)c[nH]1)C(C)C | 0.016 | 0.006 |  |  | 11 | 0.12 |  |  |  |  | 
6 | COC(=O)N[C@H](C(=O)N1CCC[C@H]1c1ncc(-c2ccc3c(c2)OC(c2ccccc2)C2=C3COc3cc(-c4cnc([C@@H]5CCCN5C(=O)[C@@H](NC(=O)OC)C(C)C)[nH]4)ccc32)[nH]1)C(C)C (stereo not given in full) | 0.17 | 0.017 | 0.28 | > 100 | 8.46 | 0.56 |  |  |  |  | 
7 | COC(=O)N[C@H](C(=O)N1CCC[C@H]1c1ncc(-c2cc3c4c(c2)CCc2cc(-c5cnc([C@@H]6C[C@@H](F)CN6C(=O)[C@@H](NC(=O)OC)C(C)C)[nH]5)cc(c2-4)CC3)[nH]1)C(C)C | 5.5 | 0.052 | 26.2 | 22.7 | > 100 | 6 |  |  |  |  | 
8 | COC(=O)N[C@H](C(=O)N1CCC[C@H]1c1ncc(-c2cc3c4c(c2)CCc2cc(-c5cnc([C@@H]6CCCN6C(=O)[C@@H](NC(=O)OC)C(C)C)[nH]5)cc(c2-4)CC3)[nH]1)C(C)C | 0.8 | 0.05 | 18.9 | 57 | > 100 | 2 |  |  |  |  | 
9 | COC(=O)N[C@H](C(=O)N1CCC[C@H]1c1ncc(-c2ccc3c(c2)Oc2ccc(-c4cnc([C@@H]5CCCN5C(=O)[C@@H](NC(=O)OC)C(C)C)[nH]4)c4c2N3CC4)[nH]1)C(C)C | 8.17 | > 0.1 | 100 | 685 |  | 4.42 |  |  |  |  | 

From ChEMBL document CHEMBL3861993, “Alternative core development around the tetracyclic indole class of HCV NS5A inhibitors” (Bioorg Med Chem Lett, 2016)
